Consider 20 molecules from US9096596B2 (Janssen Pharmaceutica NV, priority 2013, dated 2015).

Assay [1] has as its target T1, P2X7 (Homo sapiens (Human), UniProt Q99572). As to the kind of experiment: Radioligand binding, human P2X7-1321N1 cell membranes, tracer tritiated A-804598. The settings on record: human P2X7-1321N1 membranes; 1 hour at 4° C.; IC50 corrected for tracer concentration and affinity. The protocol:
(§1) On the day of the experiment, cell membrane preparations were made according to standard published methods. […] The compound can be prepared as described in the literature. […] The assay was terminated by filtration (GF/B filters pre-soaked with 0.3% PEI) and washed with washing buffer (Tris-HCl 50 mM). The IC50 generated in the binding assay was corrected for tracer concentration and affinity of the tracer to derive at the affinity (Ki) of the test compounds.

For assay [2], the target named is T2, rat P2X7 (Rattus norvegicus (Rat), UniProt Q64663). As to the kind of experiment: Radioligand binding, rat P2X7-1321N1 cell membranes, tracer tritiated A-804598. The following applies: rat P2X7-1321N1 membranes; 1 hour at 4° C.; IC50 corrected for tracer concentration and affinity. As to the method: as §1
T2 sequence (Q64663 whole entry): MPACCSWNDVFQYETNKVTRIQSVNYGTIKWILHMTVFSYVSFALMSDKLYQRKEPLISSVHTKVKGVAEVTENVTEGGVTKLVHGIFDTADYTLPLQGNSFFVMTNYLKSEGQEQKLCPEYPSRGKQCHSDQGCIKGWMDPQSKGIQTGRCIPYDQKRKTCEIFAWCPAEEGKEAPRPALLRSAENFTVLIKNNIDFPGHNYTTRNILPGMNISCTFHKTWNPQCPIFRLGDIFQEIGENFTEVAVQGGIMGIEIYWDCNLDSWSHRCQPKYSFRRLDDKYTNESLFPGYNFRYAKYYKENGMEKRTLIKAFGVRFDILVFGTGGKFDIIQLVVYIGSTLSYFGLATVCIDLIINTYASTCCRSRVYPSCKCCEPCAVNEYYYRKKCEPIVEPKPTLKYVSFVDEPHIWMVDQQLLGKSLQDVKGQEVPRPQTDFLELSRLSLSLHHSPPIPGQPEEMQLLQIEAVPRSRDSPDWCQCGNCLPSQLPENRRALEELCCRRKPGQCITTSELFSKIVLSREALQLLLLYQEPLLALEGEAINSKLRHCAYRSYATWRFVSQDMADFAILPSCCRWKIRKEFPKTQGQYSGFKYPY
In assay [3] the target is T1, P2X7. As to the kind of experiment: Ca2+ flux (FLIPR) in 1321N1 cells expressing recombinant human P2X7 channel. The format is cell-based. The settings on record: 250 μM BzATP, Calcium-4 dye. As to the method:
1321N1 cells expressing the recombinant human, rat or mouse P2X7 channel was cultured in HyQ DME/(HyClone/Dulbecco's Modified Eagle Medium) high glucose supplemented with 10% Fetal Bovine Serum (FBS) and appropriate selection marker. Cells were seeded at a density of 25000 cells/well (96-well clear bottom black walled plates) in 100 μl volume/well. On the day of the experiment, cell plates were washed with assay buffer, containing (in mM): 130 NaCl, 2 KCl, 1 CaCl2, 1 MgCl2, 10 HEPES, 5 glucose; pH 7.40 and 300 mOs. After the wash, cells were loaded with the Calcium-4 dye (Molecular Device) and incubated in the dark for 60 minutes. Test compounds were prepared at 250× the test concentration in neat DMSO. Intermediate 96-well compound plates were prepared by transferring 1.2 μL of the compound into 300 μL of assay buffer. A further 3× dilution occurred when transferring 50 μL/well of the compound plate to 100 μL/well in the cell plate. Cells were incubated with test compounds and dye for 30 minutes. […] The fluorescence change was measured 180 seconds after adding the agonist.
(A change in cytosolic calcium serves as a functional read-out for many receptors and channels.)

Assay [4] concerns the target T2, rat P2X7. Kind of assay: Ca2+ flux (FLIPR) in 1321N1 cells expressing recombinant rat P2X7 channel. The following applies: 250 μM BzATP, Calcium-4 dye. The format is cell-based. In short, it runs like this:
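1321N1 cells stably expressing P2X7 were loaded with Calcium-4 dye for 60 min in HEPES-buffered saline (pH 7.40, 1 mM CaCl2, 1 mM MgCl2), then preincubated with test compounds for 30 min. Fluorescence change was read 180 s after agonist addition.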

For assay [5], the target named is T1, P2X7. Kind of assay: P2X7 antagonism in human PBMCs (IL-1β release, ELISA). Format: cell-based. The following applies: test compound 10 μM, IL-1β release in human PBMCs, LPS 30 ng/ml + Bz-ATP 0.5 mM, read-out: PBMC 10 μM (% control). The protocol: Human blood was collected using a blood donor program. […] Cells were incubated for an additional 1.5 hours. […] In Table 2, when the data cell has been left blank, it is intended to mean that the compound was not tested in that assay.

T1 sequence (Q99572 whole entry): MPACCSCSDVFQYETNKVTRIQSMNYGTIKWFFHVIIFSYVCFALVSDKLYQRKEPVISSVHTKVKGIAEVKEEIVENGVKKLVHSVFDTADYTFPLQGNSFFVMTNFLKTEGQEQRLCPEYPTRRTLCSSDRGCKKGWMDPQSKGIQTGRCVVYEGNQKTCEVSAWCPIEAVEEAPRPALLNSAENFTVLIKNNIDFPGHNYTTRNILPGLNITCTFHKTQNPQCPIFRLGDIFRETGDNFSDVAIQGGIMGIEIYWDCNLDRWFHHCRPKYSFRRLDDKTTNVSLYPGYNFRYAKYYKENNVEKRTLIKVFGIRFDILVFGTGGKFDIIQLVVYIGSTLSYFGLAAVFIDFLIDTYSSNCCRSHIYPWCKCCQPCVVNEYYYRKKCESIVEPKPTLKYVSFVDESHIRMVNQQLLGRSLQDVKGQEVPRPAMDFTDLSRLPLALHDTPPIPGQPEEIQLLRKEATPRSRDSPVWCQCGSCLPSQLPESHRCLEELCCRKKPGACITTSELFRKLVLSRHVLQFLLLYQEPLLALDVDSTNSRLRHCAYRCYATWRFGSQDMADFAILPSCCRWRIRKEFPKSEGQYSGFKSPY

Regarding `O=C(c1cccc(Cl)c1Cl)N1CCc2c(ncnc2-c2cnccn2)C1` [Example 14, 7-[(2,3-Dichlorophenyl)carbonyl]-4-pyrazin-2-yl-5,6,7,8-tetrahydropyrido[3,4-d]pyrimidine], the Ki on P2X7 [1] was 63.1 nM; on rat P2X7 [2], 31.6 nM. In addition, the IC50 at P2X7 [3] worked out at 25.1 nM; at rat P2X7 [4] it was 3160 nM.
With `O=C(c1cccc(C(F)(F)F)c1Cl)N1CCc2c(ncnc2-c2ccn[nH]2)C1` [Example 18, (4-(1H-pyrazol-5-yl)-5,6-dihydropyrido[3,4-d]pyrimidin-7(8H)-yl)(2-chloro-3-(trifluoromethyl)phenyl)methanone], the values for the Ki at P2X7 [1] and at rat P2X7 [2] were 20 nM and 5 nM, respectively. Also, the IC50 was 10.3 nM at P2X7 [3] and 76.2 nM on rat P2X7 [4].
For the molecule `CN(C)c1nc2c(c(-c3ccn[nH]3)n1)CCN(C(=O)c1cccc(C(F)(F)F)c1Cl)C2` [Example 54, 7-{[2-Chloro-3-(trifluoromethyl)phenyl]carbonyl}-N,N-dimethyl-4-(1H-pyrazol-5-yl)-5,6,7,8-tetrahydropyrido[3,4-d]pyrimidin-2-amine], the remaining activity at 10 µM at P2X7 [5] was 5%. Besides, at P2X7 [1], affinity was put at a Ki of 100 nM. In addition, the IC50 amounted to 21 nM at P2X7 [3] and 556 nM at rat P2X7 [4].
Consider `O=C(c1cccc(C(F)(F)F)c1Cl)N1CCc2c(ncnc2-n2cnnc2)C1` [Example 109, (4-(4H-1,2,4-triazol-4-yl)-5,6-dihydropyrido[3,4-d]pyrimidin-7(8H)-yl)(2-chloro-3-(trifluoromethyl)phenyl)methanone], for which the remaining activity at 10 µM on P2X7 [5] came to 2.2%. At P2X7 [1], this molecule registered a Ki of 12.6 nM. Further, the half-inhibitory concentration (IC50) at P2X7 [3] turned out to be 12.1 nM; at rat P2X7 [4] it was 485 nM.
On to `Cc1nc2c(c(-c3[nH]ncc3F)n1)CCN(C(=O)c1cccc(Cl)c1Cl)C2` [Example 36, 7-[(2,3-Dichlorophenyl)carbonyl]-4-(4-fluoro-1H-pyrazol-5-yl)-2-methyl-5,6,7,8-tetrahydropyrido[3,4-d]pyrimidine], for which the Ki worked out at 79.4 nM at P2X7 [1] and 31.6 nM at rat P2X7 [2].
For the molecule `Cc1nc2c(c(-c3ccn[nH]3)n1)CC(C)N(C(=O)c1ccccc1Cl)C2` (stereo not shown) [Example 97, (2-chlorophenyl)(2,6-dimethyl-4-(1H-pyrazol-5-yl)-5,6-dihydropyrido[3,4-d]pyrimidin-7(8H)-yl)methanone], the remaining activity at 10 µM at P2X7 [5] was -3.1%. Further, on P2X7 [1], the affinity, expressed as Ki, was 200 nM. For the same molecule, the IC50 at P2X7 [3] was 166 nM; on rat P2X7 [4], 14000 nM.
In the case of `Cc1nc2c(c(-c3ccn[nH]3)n1)CC(C)N(C(=O)c1ccc(F)cc1F)C2` (stereo not shown) [Example 93, (2,4-difluorophenyl)(2,6-dimethyl-4-(1H-pyrazol-5-yl)-5,6-dihydropyrido[3,4-d]pyrimidin-7(8H)-yl)methanone], at P2X7 [5], the remaining activity at 10 µM was -1.7%. This molecule displayed a Ki on P2X7 [1] of 200 nM. Further, the figures for the IC50 on P2X7 [3] and on rat P2X7 [4] were 28.5 nM and 385 nM, respectively.
`O=C(c1cccc(C(F)(F)F)c1Cl)N1CCc2c(nc(C3CC3)nc2-c2ccn[nH]2)C1` [Example 57, 7-{[2-Chloro-3-(trifluoromethyl)phenyl]carbonyl}-2-cyclopropyl-4-(1H-pyrazol-5-yl)-5,6,7,8-tetrahydropyrido[3,4-d]pyrimidine]: the remaining activity at 10 µM on P2X7 [5] is -9.6%. Further, the Ki on P2X7 [1] amounted to 63.1 nM. For the same molecule, the IC50 on P2X7 [3] is 16.5 nM; at rat P2X7 [4], 161 nM.
Turning to `Cc1nc2c(c(-c3ccn[nH]3)n1)CC(C)N(C(=O)c1cccc(C(F)(F)F)c1C)C2` (stereo not shown) [Example 77, (2,6-dimethyl-4-(1H-pyrazol-5-yl)-5,6-dihydropyrido[3,4-d]pyrimidin-7(8H)-yl)(2-methyl-3-(trifluoromethyl)phenyl)methanone], on P2X7 [5], the remaining activity at 10 µM was found to be 20.9%. At P2X7 [1], this molecule had a Ki of 31.6 nM. Further, the IC50 at P2X7 [3] was 63.1 nM.
On to `O=C(c1ccc(F)cc1Cl)N1CCc2c(ncnc2-c2ccn[nH]2)C1` [Example 21], for which the remaining activity at 10 µM on P2X7 [5] is -15.5%. The molecule further came in with a Ki on P2X7 [1] of 39.8 nM. Also, on P2X7 [3], the IC50 stood at 280 nM.
In the case of `Cc1nc2c(c(-c3ccn[nH]3)n1)CC(C)N(C(=O)c1ccc(Cl)cc1)C2` (stereo not shown) [Example 96, (4-chlorophenyl)(2,6-dimethyl-4-(1H-pyrazol-5-yl)-5,6-dihydropyrido[3,4-d]pyrimidin-7(8H)-yl)methanone], the remaining activity at 10 µM at P2X7 [5] is 3.8%. In addition, on P2X7 [1], the inhibition constant Ki came to 631 nM. Also, the IC50 worked out at 50 nM at P2X7 [3] and 1840 nM at rat P2X7 [4].
The matching figures for `O=C(c1cccc(C(F)(F)F)c1Cl)N1CCc2c(ncnc2-c2cccc(F)n2)C1` [Example 130, (2-chloro-3-(trifluoromethyl)phenyl)(4-(6-fluoropyridin-2-yl)-5,6-dihydropyrido[3,4-d]pyrimidin-7(8H)-yl)methanone]: 12.9%, 63.1 nM, 17.4 nM and 1090 nM.
`Cc1nc2c(c(-c3ccn[nH]3)n1)CC(C)N(C(=O)c1ccc(Cl)cc1F)C2` (stereo not shown) [Example 87, (4-chloro-2-fluorophenyl)(2,6-dimethyl-4-(1H-pyrazol-5-yl)-5,6-dihydropyrido[3,4-d]pyrimidin-7(8H)-yl)methanone]: the remaining activity at 10 µM on P2X7 [5] was found to be 0.4%. For the same molecule, the affinity at P2X7 [1], expressed as Ki, was 31.6 nM. In addition, the half-maximal inhibitory concentration (IC50) on P2X7 [3] was determined as 33.6 nM.
`O=C(c1cccc(C(F)(F)F)c1F)N1CCc2c(ncnc2-c2ccn[nH]2)C1` [Example 111, (4-(1H-pyrazol-5-yl)-5,6-dihydropyrido[3,4-d]pyrimidin-7(8H)-yl)(2-fluoro-3-(trifluoromethyl)phenyl)methanone]: the remaining activity at 10 µM on P2X7 [5] stood at 0.6%. In addition, the affinity at P2X7 [1] corresponds to a Ki of 50.1 nM. Also, the results for the IC50 at P2X7 [3] and at rat P2X7 [4] were 353 nM and 807 nM, respectively.
With `O=C(c1cccc(C(F)(F)F)c1Cl)N1CCc2c(nc(C(F)(F)F)nc2-c2ccn[nH]2)C1` [Example 60, (4-(1H-pyrazol-5-yl)-2-(trifluoromethyl)-5,6-dihydropyrido[3,4-d]pyrimidin-7(8H)-yl)(2-chloro-3-(trifluoromethyl)phenyl)methanone], at P2X7 [5], the remaining activity at 10 µM amounted to 10.8%. Also, the Ki at P2X7 [1] came out at 79.4 nM. The half-inhibitory concentration (IC50) on P2X7 [3] worked out at 65.5 nM.
Molecule `Cc1nc2c(c(-c3ccn[nH]3)n1)CCN(C(=O)c1ccc(Cl)c(F)c1Cl)C2` [Example 53, 7-[(2,4-Dichloro-3-fluorophenyl)carbonyl]-2-methyl-4-(1H-pyrazol-5-yl)-5,6,7,8-tetrahydropyrido[3,4-d]pyrimidine] showed a Ki at P2X7 [1] of 63.1 nM. Further, the IC50 is 83.4 nM at P2X7 [3] and 1890 nM at rat P2X7 [4].
`CC1Cc2c(nc(N)nc2-c2ccn[nH]2)CN1C(=O)c1cccc(C(F)(F)F)c1Cl` (stereo not shown) [Example 63, (2-amino-6-methyl-4-(1H-pyrazol-5-yl)-5,6-dihydropyrido[3,4-d]pyrimidin-7(8H)-yl)(2-chloro-3-(trifluoromethyl)phenyl)methanone]: the remaining activity at 10 µM at P2X7 [5] was -4.1%. Moreover, at P2X7 [1], the inhibition constant Ki worked out at 22.4 nM. Further, the IC50 was 316 nM at P2X7 [3] and 2.5 nM at rat P2X7 [4].
Turning to `Cc1nc2c(c(-n3ccnn3)n1)CCN(C(=O)c1cccc(C(F)(F)F)c1Cl)C2` [Example 48, 7-{[2-Chloro-3-(trifluoromethyl)phenyl]carbonyl}-2-methyl-4-(1H-1,2,3-triazol-1-yl)-5,6,7,8-tetrahydropyrido[3,4-d]pyrimidine], the Ki at P2X7 [1] amounted to 2000 nM. Further, the IC50 came out at 5010 nM on P2X7 [3] and 10000 nM on rat P2X7 [4].
Regarding `CC1Cc2c(ncnc2-c2ccn[nH]2)CN1C(=O)c1cccc(C(F)(F)F)c1Cl` (stereo not shown) [Example 62, (2-chloro-3-(trifluoromethyl)phenyl)(6-methyl-4-(1H-pyrazol-5-yl)-5,6-dihydropyrido[3,4-d]pyrimidin-7(8H)-yl)methanone], the remaining activity at 10 µM at P2X7 [5] came out at 44.7%. On P2X7 [1], the Ki was determined as 25.1 nM. The values for the IC50 on P2X7 [3] and on rat P2X7 [4] were 7.8 nM and 5.6 nM, respectively.
For the molecule `O=C(c1cccc(C(F)(F)F)c1Cl)N1CCc2c(ncnc2-n2nccn2)C1` [Example 108, 7-{[2-Chloro-3-(trifluoromethyl)phenyl]carbonyl}-4-(2H-1,2,3-triazol-2-yl)-5,6,7,8-tetrahydropyrido[3,4-d]pyrimidine], at rat P2X7 [2], the Ki is 7.9 nM. Further, on rat P2X7 [4], the IC50 was determined as 67.9 nM.

For orientation: Ki means the dissociation constant of the complex between target and ligand, obtained from inhibition or displacement. As a reminder, the IC50 is the concentration at which inhibition is half-maximal.
